Experimental data published in patent US10918623B2, “Methods of treating influenza” (Biotron Limited, priority 2017, dated 2021).

Tests used:
Type in all cases: cell-based
[1] = system: PR8 4C [A30T] M2 mutant amantadine resistant influenza A virus
[2] = system: SHIV-1M2 (ion channel sequence of influenza A M2)
Influenza B = system: Influenza B

Structure (SMILES)	Shift in drug sensitivity caused by the A30T mutation in M2 [1]	Virus released into the culture supernatant as measured by viral p27 protein [2]	Comments (Influenza B)	EC50 [1]	EC90 [1]
NC12CC3CC(CC(C3)C1)C2 [amantadine, reference compound]	large shift in drug sensitivity				
Cn1cc(-c2cccc3cc(C(=O)NC(=N)N)ccc23)cn1 [BIT225, N-carbamimidoyl-5-(1-methyl-1H-pyrazol-4-yl)-2-naphthamide]		reduced virus released	Active	~10 µM	18 µM
